Measurements reported in ChEMBL document CHEMBL4229379, “Synthesis and structure-activity relationship of novel bisindole amidines active against MDR Gram-positive and Gram-negative bacteria” (Eur J Med Chem, 2018).
Converted amounts (≈) assume the structure as drawn.

Columns and labels:
[1] = system: Escherichia coli; test: Antibacterial activity against extended-spectrum beta-lactamase deficient Escherichia coli ATCC 25922 after 18 hrs by CLSI broth microdilution method; type: functional; details: ATCC 25922, 18 h
[2] = system: Klebsiella pneumoniae; test: Antibacterial activity against extended-spectrum beta-lactamase deficient Klebsiella pneumoniae 7 after 18 hrs by CLSI broth microdilution method; type: functional; details: Klebsiella pneumoniae, 7, 18 h
[3] = system: Staphylococcus epidermidis; test: Antibacterial activity against methicillin-sensitive Staphylococcus epidermidis 12-6 after 18 hrs by CLSI broth microdilution method; type: functional; details: 12-6, 18 h
[4] = system: Klebsiella pneumoniae; test: Antibacterial activity against extended-spectrum beta-lactamase harboring Klebsiella pneumoniae ATCC 700603 after 18 hrs by CLSI broth microdilution method; type: functional; details: Klebsiella pneumoniae, 700603, 18 h
[5] = system: Staphylococcus aureus; test: Antibacterial activity against methicillin-sensitive Staphylococcus aureus 15 after 18 hrs by CLSI broth microdilution method; type: functional; details: Staphylococcus aureus, 15, 18 h
[6] = system: Stenotrophomonas maltophilia; test: Antibacterial activity against Stenotrophomonas maltophilia ATCC 13636 after 18 hrs by CLSI broth microdilution method; type: functional; details: ATCC 13636, 18 h
[7] = system: Klebsiella pneumoniae; test: Antibacterial activity against extended-spectrum beta-lactamase harboring Klebsiella pneumoniae 12-8 after 18 hrs by CLSI broth microdilution method; type: functional; details: 12-8, 18 h
[8] = system: Escherichia coli; test: Antibacterial activity against extended-spectrum beta-lactamase harboring Escherichia coli 12-15 after 18 hrs by CLSI broth microdilution method; type: functional; details: 12-15, 18 h
[9] = system: Serratia marcescens; test: Antibacterial activity against Serratia marcescens ATCC 21074 after 18 hrs by CLSI broth microdilution method; type: functional; details: ATCC 21074, 18 h
[10] = system: Staphylococcus aureus; test: Antibacterial activity against methicillin-sensitive Staphylococcus aureus ATCC 29213 after 18 hrs by CLSI broth microdilution method; type: functional; details: ATCC 29213, 18 h
[11] = system: Citrobacter freundii; test: Antibacterial activity against Citrobacter freundii ATCC 43864 after 18 hrs by CLSI broth microdilution method; type: functional; details: ATCC 43864, 18 h
[12] = system: Pseudomonas aeruginosa; test: Antibacterial activity against Pseudomonas aeruginosa 12-16 after 18 hrs by CLSI broth microdilution method; type: functional; details: 12-16, 18 h
[13] = system: Enterococcus faecium; test: Antibacterial activity against vancomycin-resistant Enterococcus faecium ATCC 700221 after 18 hrs by CLSI broth microdilution method; type: functional; details: ATCC 700221, 18 h
[14] = system: Enterococcus faecium; test: Antibacterial activity against vancomycin-sensitive Enterococcus faecium 12-3 after 18 hrs by CLSI broth microdilution method; type: functional; details: 12-3, 18 h
[15] = system: Staphylococcus epidermidis; test: Antibacterial activity against methicillin-resistant Staphylococcus epidermidis 12-8 after 18 hrs by CLSI broth microdilution method; type: functional; details: 12-8, 18 h
[16] = system: Pseudomonas aeruginosa; test: Antibacterial activity against Pseudomonas aeruginosa PAO1 after 18 hrs by CLSI broth microdilution method; type: functional; details: PAO1, 18 h
[17] = system: Proteus vulgaris; test: Antibacterial activity against Proteus vulgaris ATCC 29905 after 18 hrs by CLSI broth microdilution method; type: functional; details: ATCC 29905, 18 h
[18] = system: Staphylococcus epidermidis; test: Antibacterial activity against methicillin-sensitive Staphylococcus epidermidis ATCC 12228 after 18 hrs by CLSI broth microdilution method; type: functional; details: ATCC 12228, 18 h
[19] = system: Proteus mirabilis; test: Antibacterial activity against Proteus mirabilis 12-6 after 18 hrs by CLSI broth microdilution method; type: functional; details: 12-6, 18 h
[20] = system: Staphylococcus aureus; test: Antibacterial activity against methicillin-resistant Staphylococcus aureus 12-33 after 18 hrs by CLSI broth microdilution method; type: functional; details: 12-33, 18 h
[21] = Cytotoxicity against HEK293T cells assessed as reduction in cell viability after 48 hrs by MTS assay; type: cell-based, HEK-293T; details: human
[22] = system: Escherichia coli; test: Antibacterial activity against extended-spectrum beta-lactamase deficient Escherichia coli 1515 after 18 hrs by CLSI broth microdilution method; type: functional; details: Escherichia coli, 1515, 18 h
[23] = system: Pseudomonas aeruginosa; test: Antibacterial activity against Pseudomonas aeruginosa ATCC 27853 after 18 hrs by CLSI broth microdilution method; type: functional; details: ATCC 27853, 18 h
[24] = system: Providencia rettgeri; test: Antibacterial activity against Providencia rettgeri ATCC 31052 after 18 hrs by CLSI broth microdilution method; type: functional; details: ATCC 31052, 18 h
[25] = system: Klebsiella pneumoniae; test: Antibacterial activity against extended-spectrum beta-lactamase deficient Klebsiella pneumoniae 12-4 after 18 hrs by CLSI broth microdilution method; type: functional; details: 12-4, 18 h
[26] = system: Staphylococcus aureus; test: Antibacterial activity against methicillin-sensitive Staphylococcus aureus 12-28 after 18 hrs by CLSI broth microdilution method; type: functional; details: 12-28, 18 h
[27] = system: Enterococcus faecalis; test: Antibacterial activity against vancomycin-sensitive Enterococcus faecalis 12-5 after 18 hrs by CLSI broth microdilution method; type: functional; details: 12-5, 18 h
[28] = system: Enterococcus faecalis; test: Antibacterial activity against vancomycin-sensitive Enterococcus faecalis ATCC 29212 after 18 hrs by CLSI broth microdilution method; type: functional; details: ATCC 29212, 18 h
[29] = system: Staphylococcus aureus; test: Antibacterial activity against methicillin-resistant Staphylococcus aureus ATCC 33591 after 18 hrs by CLSI broth microdilution method; type: functional; details: ATCC 33591, 18 h
[30] = system: Acinetobacter calcoaceticus; test: Antibacterial activity against Acinetobacter calcoaceticus ATCC 19606 after 18 hrs by CLSI broth microdilution method; type: functional; details: ATCC 19606, 18 h
[31] = system: Enterococcus faecium; test: Antibacterial activity against vancomycin-resistant Enterococcus faecium 12-1 after 18 hrs by CLSI broth microdilution method; type: functional; details: 12-1, 18 h
[32] = system: Enterobacter cloacae; test: Antibacterial activity against Enterobacter cloacae ATCC 43560 after 18 hrs by CLSI broth microdilution method; type: functional; details: ATCC 43560, 18 h
[33] = system: Klebsiella aerogenes; test: Antibacterial activity against Enterobacter aerogenes ATCC 13048 after 18 hrs by CLSI broth microdilution method; type: functional; details: ATCC 13048, 18 h
[34] = system: Escherichia coli; test: Antibacterial activity against extended-spectrum beta-lactamase deficient Escherichia coli 12-14 after 18 hrs by CLSI broth microdilution method; type: functional; details: 12-14, 18 h
[35] = system: Enterococcus faecalis; test: Antibacterial activity against vancomycin-resistant Enterococcus faecalis ATCC 51299 after 18 hrs by CLSI broth microdilution method; type: functional; details: ATCC 51299, 18 h
[36] = system: Enterococcus faecalis; test: Antibacterial activity against vancomycin-resistant Enterococcus faecalis 09-9 after 18 hrs by CLSI broth microdilution method; type: functional; details: 09-9, 18 h
[37] = system: Klebsiella pneumoniae; test: Antibacterial activity against new delhi metallo-beta-lactamase-1 harboring Klebsiella pneumoniae ATCC BAA-2146 after 18 hrs by CLSI broth microdilution method; type: functional; details: ATCC BAA-2146, 18 h

Row | Structure (SMILES) | MIC [1] | MIC [2] | MIC [3] | MIC [4] | MIC [5] | MIC [6] | MIC [7] | MIC [8] | MIC [9] | MIC [10] | MIC [11] | MIC [12] | MIC [13] | MIC [14] | MIC [15] | MIC [16] | MIC [17] | MIC [18] | MIC [19] | MIC [20] | further results
1 | CN(C)C(=N)c1ccc2cc(-c3ccc4ccc(-c5cc6ccc(C(=N)N(C)C)cc6[nH]5)cc4c3)[nH]c2c1 | > 128 µg/mL | > 128 µg/mL | 64 µg/mL (≈ 128 µM) | > 128 µg/mL | 4 µg/mL (≈ 8.02 µM) | > 128 µg/mL | > 128 µg/mL | > 128 µg/mL | > 128 µg/mL | 4 µg/mL (≈ 8.02 µM) | > 128 µg/mL | > 128 µg/mL | 128 µg/mL (≈ 257 µM) | 32 µg/mL (≈ 64.2 µM) | 4 µg/mL (≈ 8.02 µM) | > 128 µg/mL | > 128 µg/mL | 4 µg/mL (≈ 8.02 µM) | > 128 µg/mL | 8 µg/mL (≈ 16 µM) | CC50 at 48 h [21]: 13.6 µg/mL (≈ 27.4 µM); MIC [22]: > 128 µg/mL; MIC [23]: > 128 µg/mL; MIC [24]: > 128 µg/mL; MIC [25]: > 128 µg/mL; MIC [26]: 4 µg/mL (≈ 8.02 µM); MIC [27]: 128 µg/mL (≈ 257 µM); MIC [28]: 128 µg/mL (≈ 257 µM); MIC [29]: 4 µg/mL (≈ 8.02 µM); MIC [30]: > 128 µg/mL; MIC [31]: 16 µg/mL (≈ 32.1 µM); MIC [32]: > 128 µg/mL; MIC [33]: > 128 µg/mL; MIC [34]: > 128 µg/mL; MIC [35]: 128 µg/mL (≈ 257 µM); MIC [36]: 128 µg/mL (≈ 257 µM); MIC [37]: > 128 µg/mL
2 | CN(C)C(=N)c1ccc2cc(-c3cccc(-c4cc5ccc(C(=N)N(C)C)cc5[nH]4)c3)[nH]c2c1 | 64 µg/mL (≈ 143 µM) | > 128 µg/mL | 32 µg/mL (≈ 71.3 µM) | > 128 µg/mL | 4 µg/mL (≈ 8.92 µM) | > 128 µg/mL | > 128 µg/mL | 64 µg/mL (≈ 143 µM) | > 128 µg/mL | 8 µg/mL (≈ 17.8 µM) | > 128 µg/mL | > 128 µg/mL | 16 µg/mL (≈ 35.7 µM) | > 128 µg/mL | 16 µg/mL (≈ 35.7 µM) | > 128 µg/mL | > 128 µg/mL | 8 µg/mL (≈ 17.8 µM) | > 128 µg/mL | 8 µg/mL (≈ 17.8 µM) | CC50 at 48 h [21]: 52.2 µg/mL (≈ 116 µM); MIC [22]: 64 µg/mL (≈ 143 µM); MIC [23]: > 128 µg/mL; MIC [24]: 128 µg/mL (≈ 285 µM); MIC [25]: > 128 µg/mL; MIC [26]: 4 µg/mL (≈ 8.92 µM); MIC [27]: > 128 µg/mL; MIC [28]: 64 µg/mL (≈ 143 µM); MIC [29]: 4 µg/mL (≈ 8.92 µM); MIC [30]: > 128 µg/mL; MIC [31]: 8 µg/mL (≈ 17.8 µM); MIC [32]: > 128 µg/mL; MIC [33]: > 128 µg/mL; MIC [34]: 64 µg/mL (≈ 143 µM); MIC [35]: 128 µg/mL (≈ 285 µM); MIC [36]: 64 µg/mL (≈ 143 µM); MIC [37]: > 128 µg/mL
